Measured values from ChEMBL document CHEMBL1142534, “Design, synthesis, biological evaluation and pharmacokinetics of bis(hydroxyphenyl) substituted azoles, thiophenes, benzenes, and aza-benzenes as potent and selective nonsteroidal inhibitors of 17beta-hydroxysteroid dehydrogenase type 1 (17beta-HSD1)” (J Med Chem, 2008).
The source made the active and inactive calls. The calls are words filed in the database; no cut-off is given here.

Columns and labels:
[1] = molecular target: T1, 17-beta-hydroxysteroid dehydrogenase type 1 (Homo sapiens) (UniProt P14061); test: (§1) Inhibition of human placental cytosolic 17beta-HSD1
T1 sequence (whole entry): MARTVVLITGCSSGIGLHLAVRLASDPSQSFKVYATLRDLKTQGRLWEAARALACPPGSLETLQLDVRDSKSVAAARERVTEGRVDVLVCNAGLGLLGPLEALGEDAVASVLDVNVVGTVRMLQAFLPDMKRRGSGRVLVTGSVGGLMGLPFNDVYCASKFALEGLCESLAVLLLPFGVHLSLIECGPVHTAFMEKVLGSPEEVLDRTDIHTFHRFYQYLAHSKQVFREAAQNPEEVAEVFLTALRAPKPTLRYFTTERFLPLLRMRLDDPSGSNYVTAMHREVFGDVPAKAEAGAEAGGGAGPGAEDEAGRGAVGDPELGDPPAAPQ

Rattus norvegicus [2] = test: Clast in Wistar rat at 10 mg/kg, po by cassette dosing; assay type: ADME, organism-based; design: dose 10 mg/kg, route oral; settings: in vivo
Rattus norvegicus [3] = test: Tlast in Wistar rat at 10 mg/kg, po by cassette dosing; assay type: ADME, organism-based; design: dose 10 mg/kg, route oral; settings: in vivo
[4] = Half life in Wistar rat at 10 mg/kg, po by cassette dosing; assay type: ADME, organism-based; design: dose 10 mg/kg, route oral; settings: in vivo, read-out: beta t1/2 (converted)
[5] = Tmax in Wistar rat at 10 mg/kg, po by cassette dosing; assay type: ADME, organism-based; design: dose 10 mg/kg, route oral; settings: in vivo
Rattus norvegicus [6] = test: AUC (0 to Tlast) life in Wistar rat at 10 mg/kg, po by cassette dosing; assay type: ADME, organism-based, Plasma; design: dose 10 mg/kg, route oral; settings: in vivo
[7] = Cmax in Wistar rat at 10 mg/kg, po by cassette dosing; assay type: ADME, organism-based; design: dose 10 mg/kg, route oral; settings: in vivo
[8] = molecular target: T2, 17-beta-hydroxysteroid dehydrogenase type 1 (Homo sapiens, UniProt P14061); test: as §1
T2 sequence (P14061 whole entry): T1 sequence (whole entry)

T47D = test: Estrogenic activity in human ER expressing T47D cells assessed as stimulation of cell proliferation at 100 nM by MTT assay; assay type: functional, cell-based
[9] = molecular target: Estrogen receptor beta (Homo sapiens) (UniProt Q92731); test: Displacement of [2,4,6,7-3H]17beta-estradiol from human recombinant ERbeta receptor relative to 17-beta-estradiol
[10] = molecular target: T3, Estrogen receptor (Homo sapiens) (UniProt P03372); test: Displacement of [2,4,6,7-3H]17beta-estradiol from human recombinant ERalpha receptor relative to 17-beta-estradiol
T3 sequence (whole entry): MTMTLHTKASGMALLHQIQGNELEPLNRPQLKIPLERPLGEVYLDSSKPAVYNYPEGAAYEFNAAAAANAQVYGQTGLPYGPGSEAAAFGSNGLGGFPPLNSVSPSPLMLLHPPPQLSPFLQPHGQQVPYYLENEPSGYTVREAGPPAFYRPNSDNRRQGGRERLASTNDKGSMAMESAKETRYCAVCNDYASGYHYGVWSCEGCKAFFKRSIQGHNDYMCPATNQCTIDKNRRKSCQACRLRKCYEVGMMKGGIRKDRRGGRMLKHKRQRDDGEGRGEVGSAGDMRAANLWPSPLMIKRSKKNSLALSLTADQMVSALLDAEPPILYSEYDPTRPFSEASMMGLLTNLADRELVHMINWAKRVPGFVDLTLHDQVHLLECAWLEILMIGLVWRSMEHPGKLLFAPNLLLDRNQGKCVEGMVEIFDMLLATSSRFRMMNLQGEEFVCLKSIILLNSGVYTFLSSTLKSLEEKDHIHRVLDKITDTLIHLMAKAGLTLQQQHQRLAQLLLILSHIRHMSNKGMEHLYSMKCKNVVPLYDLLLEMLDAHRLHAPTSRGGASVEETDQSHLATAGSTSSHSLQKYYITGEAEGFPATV

in vitro [11] = settings: human, Caco-2
Description: Apparent permeability across human Caco-2 cells at 50 uM

Cytochrome P450 2C9 = Cytochrome P450 2C9 (Homo sapiens, UniProt P11712); test: Inhibition of human hepatic CYP2C9; assay type: ADME
in vitro [12] = settings: Sprague-Dawley, rat, liver microsomes
in vitro [13] = settings: Sprague-Dawley, rat, liver microsomes; remark: listed apart in the source
Cytochrome P450 3A4 = Cytochrome P450 3A4 (Homo sapiens, UniProt P08684); test: Inhibition of human hepatic CYP3A4
Cytochrome P450 2D6 = Cytochrome P450 2D6 (Homo sapiens, UniProt P10635); test: Inhibition of human hepatic CYP2D6; assay type: ADME
Cytochrome P450 2C19 = Cytochrome P450 2C19 (Homo sapiens, UniProt P33261); test: Inhibition of human hepatic CYP2C19; assay type: ADME
Cytochrome P450 2B6 = molecular target: T4, Cytochrome P450 2B6 (Homo sapiens, UniProt P20813); test: Inhibition of human hepatic CYP2B6; assay type: ADME
T4 sequence (P20813 whole entry): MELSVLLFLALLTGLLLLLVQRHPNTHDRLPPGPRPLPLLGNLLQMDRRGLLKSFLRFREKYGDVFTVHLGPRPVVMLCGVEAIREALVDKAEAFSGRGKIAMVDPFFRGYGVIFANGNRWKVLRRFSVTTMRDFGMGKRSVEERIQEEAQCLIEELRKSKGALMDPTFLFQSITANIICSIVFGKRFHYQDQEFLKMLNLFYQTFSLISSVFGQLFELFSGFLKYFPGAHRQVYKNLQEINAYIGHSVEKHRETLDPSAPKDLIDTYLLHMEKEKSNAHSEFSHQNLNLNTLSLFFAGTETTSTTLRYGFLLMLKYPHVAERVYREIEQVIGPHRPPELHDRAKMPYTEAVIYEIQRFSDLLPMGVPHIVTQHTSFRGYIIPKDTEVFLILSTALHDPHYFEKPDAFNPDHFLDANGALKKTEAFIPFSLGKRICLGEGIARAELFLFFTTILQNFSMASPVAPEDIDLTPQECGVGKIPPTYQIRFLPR

[14] = molecular target: T5, 17-beta-hydroxysteroid dehydrogenase type 2 (Homo sapiens, UniProt P37059); test: Inhibition of human placental microsomal 17beta-HSD2
T5 sequence (P37059 whole entry): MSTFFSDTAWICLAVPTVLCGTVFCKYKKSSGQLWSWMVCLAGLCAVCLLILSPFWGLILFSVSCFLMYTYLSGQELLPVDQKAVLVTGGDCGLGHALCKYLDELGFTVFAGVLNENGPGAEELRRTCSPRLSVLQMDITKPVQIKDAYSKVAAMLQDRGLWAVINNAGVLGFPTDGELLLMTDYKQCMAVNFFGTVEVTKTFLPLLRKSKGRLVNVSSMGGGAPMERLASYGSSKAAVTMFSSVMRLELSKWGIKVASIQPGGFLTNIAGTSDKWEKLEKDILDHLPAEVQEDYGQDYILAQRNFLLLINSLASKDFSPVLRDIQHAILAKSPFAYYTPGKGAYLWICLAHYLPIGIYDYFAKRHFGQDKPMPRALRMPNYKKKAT

Cytochrome P450 1A2 = molecular target: T6, Cytochrome P450 1A2 (Homo sapiens, UniProt P05177); test: Inhibition of human hepatic CYP1A2; assay type: ADME
T6 sequence (P05177 whole entry): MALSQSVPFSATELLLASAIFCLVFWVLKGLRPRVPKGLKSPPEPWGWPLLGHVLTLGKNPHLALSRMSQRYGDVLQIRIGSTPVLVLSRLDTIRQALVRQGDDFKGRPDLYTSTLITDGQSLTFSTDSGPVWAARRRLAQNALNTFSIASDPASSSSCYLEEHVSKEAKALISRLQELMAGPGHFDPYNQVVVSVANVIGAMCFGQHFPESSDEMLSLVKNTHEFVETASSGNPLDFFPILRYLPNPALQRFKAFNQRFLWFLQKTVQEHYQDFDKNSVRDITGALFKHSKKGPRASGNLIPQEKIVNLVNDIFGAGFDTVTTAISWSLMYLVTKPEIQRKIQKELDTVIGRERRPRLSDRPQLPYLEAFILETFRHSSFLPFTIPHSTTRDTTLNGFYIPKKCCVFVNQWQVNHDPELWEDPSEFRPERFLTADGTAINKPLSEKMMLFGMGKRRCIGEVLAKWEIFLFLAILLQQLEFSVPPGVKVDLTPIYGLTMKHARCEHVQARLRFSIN

Chain of Estrogen receptor beta (Homo sapiens) (Q92731 whole entry): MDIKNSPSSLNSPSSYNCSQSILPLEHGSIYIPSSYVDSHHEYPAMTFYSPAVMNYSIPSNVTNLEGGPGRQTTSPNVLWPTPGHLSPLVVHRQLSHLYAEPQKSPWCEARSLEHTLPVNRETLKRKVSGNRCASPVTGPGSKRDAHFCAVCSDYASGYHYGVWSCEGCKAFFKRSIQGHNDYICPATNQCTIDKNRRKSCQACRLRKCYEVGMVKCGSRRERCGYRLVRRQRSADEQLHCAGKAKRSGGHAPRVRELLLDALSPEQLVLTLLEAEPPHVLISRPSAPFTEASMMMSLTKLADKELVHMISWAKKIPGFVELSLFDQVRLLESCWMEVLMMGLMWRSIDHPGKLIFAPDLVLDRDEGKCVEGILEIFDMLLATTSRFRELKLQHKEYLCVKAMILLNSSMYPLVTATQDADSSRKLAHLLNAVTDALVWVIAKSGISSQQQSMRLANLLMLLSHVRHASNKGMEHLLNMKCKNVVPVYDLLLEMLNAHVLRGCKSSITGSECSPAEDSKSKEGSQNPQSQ
Chain of Cytochrome P450 2D6 (P10635 whole entry): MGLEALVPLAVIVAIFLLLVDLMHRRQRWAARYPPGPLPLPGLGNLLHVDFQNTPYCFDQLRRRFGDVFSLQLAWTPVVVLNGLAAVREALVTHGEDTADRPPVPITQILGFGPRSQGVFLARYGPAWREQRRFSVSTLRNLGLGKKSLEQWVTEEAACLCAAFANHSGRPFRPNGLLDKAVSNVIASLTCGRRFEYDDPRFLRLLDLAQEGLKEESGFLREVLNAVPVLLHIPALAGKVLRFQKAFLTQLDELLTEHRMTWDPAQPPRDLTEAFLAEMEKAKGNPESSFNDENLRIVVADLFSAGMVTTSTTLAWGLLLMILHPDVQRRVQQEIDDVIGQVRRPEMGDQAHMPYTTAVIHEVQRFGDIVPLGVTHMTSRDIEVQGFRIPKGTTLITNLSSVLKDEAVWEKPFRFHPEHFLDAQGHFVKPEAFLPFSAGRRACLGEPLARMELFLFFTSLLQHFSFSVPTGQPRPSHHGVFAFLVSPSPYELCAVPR
Chain of Cytochrome P450 2C19 (P33261 whole entry): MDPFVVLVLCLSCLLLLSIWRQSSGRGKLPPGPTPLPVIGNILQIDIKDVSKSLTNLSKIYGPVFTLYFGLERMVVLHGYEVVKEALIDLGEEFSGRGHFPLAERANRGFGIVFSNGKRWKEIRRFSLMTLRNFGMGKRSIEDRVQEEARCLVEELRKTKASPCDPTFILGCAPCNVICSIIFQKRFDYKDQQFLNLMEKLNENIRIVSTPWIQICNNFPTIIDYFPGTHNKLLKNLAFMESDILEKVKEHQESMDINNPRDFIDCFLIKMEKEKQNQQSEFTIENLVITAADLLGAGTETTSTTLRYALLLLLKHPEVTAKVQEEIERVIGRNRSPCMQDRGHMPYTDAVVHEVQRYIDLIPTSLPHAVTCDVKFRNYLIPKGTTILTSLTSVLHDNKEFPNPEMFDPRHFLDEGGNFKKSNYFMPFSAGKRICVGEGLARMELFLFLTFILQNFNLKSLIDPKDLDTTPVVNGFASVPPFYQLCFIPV
Chain of Cytochrome P450 3A4 (P08684 whole entry): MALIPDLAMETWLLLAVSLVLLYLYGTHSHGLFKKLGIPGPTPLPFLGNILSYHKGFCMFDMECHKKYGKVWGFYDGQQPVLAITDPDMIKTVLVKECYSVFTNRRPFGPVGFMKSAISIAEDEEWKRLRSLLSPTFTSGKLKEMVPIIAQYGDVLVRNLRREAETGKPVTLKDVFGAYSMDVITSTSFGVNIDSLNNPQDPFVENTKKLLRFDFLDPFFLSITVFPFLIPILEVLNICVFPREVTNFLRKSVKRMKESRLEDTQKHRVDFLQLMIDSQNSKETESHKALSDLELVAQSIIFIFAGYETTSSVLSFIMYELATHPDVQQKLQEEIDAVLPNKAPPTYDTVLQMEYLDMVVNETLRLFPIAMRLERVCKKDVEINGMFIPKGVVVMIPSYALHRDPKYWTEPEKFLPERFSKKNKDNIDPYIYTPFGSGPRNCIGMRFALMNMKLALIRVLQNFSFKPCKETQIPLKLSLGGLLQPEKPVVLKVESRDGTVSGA
Chain of Cytochrome P450 2C9 (P11712 whole entry): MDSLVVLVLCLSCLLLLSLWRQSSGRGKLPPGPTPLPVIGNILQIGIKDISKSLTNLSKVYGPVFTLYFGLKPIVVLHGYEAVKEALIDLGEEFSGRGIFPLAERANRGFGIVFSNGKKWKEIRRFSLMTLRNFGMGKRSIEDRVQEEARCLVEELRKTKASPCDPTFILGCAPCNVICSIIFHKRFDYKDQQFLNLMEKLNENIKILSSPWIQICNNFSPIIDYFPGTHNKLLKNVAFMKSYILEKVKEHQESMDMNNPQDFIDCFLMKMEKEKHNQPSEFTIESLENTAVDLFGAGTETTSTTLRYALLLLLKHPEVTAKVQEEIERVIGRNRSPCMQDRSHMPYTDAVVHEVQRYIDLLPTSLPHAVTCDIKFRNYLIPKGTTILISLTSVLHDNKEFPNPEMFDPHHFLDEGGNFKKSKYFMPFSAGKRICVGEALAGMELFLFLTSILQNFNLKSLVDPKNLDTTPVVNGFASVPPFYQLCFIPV

## Oc1ccc(-c2csc(-c3ccc(O)cc3)n2)cc1
[1]
  Activity: inactive

## Oc1cccc(-c2nnc(-c3cccc(O)c3)nn2)c1
Rattus norvegicus [2]
  Cz: 54 ng/mL
Rattus norvegicus [3]
  tz: 10 h
[4]
  half-life: 1.2 h
[5]
  Tmax: 3 h
Rattus norvegicus [6]
  AUC: 1200 ng·h/mL
[7]
  Cmax: 106 ng/mL

## Oc1ccc(-c2csc(-c3ccc(O)cc3)c2)cc1
[1]
  Activity: inactive

## Oc1cccc(-c2cccs2)c1
[1]
  Activity: inactive

## Oc1cccc(-c2ccc(-c3cccc(O)c3)s2)c1
[8]
  IC50: 173 nM

## Oc1ccc(-c2ccc(-c3cccc(O)c3)cc2)cc1
T47D
  Activity: inactive
[8]
  IC50: 471 nM

## Cn1nc(-c2ccc(O)cc2)nc1-c1ccc(O)cc1
[1]
  Activity: inactive

## Oc1ccc(-c2cnc(-c3cccc(O)c3)[nH]2)cc1
[1]
  Activity: inactive

## Oc1ccc(-c2cccc(-c3cccc(O)c3)c2)cc1
[8]
  IC50: > 1000 nM

## Oc1ccc(-c2csc(-c3cccc(O)c3)c2)cc1
[9]
  RBA: 0.1%
[8]
  IC50: 77 nM
[10]
  RBA: 0.01%

## Oc1cccc(-c2nsc(-c3cccc(O)c3)n2)c1
[8]
  IC50: 169 nM

## Oc1cccc(-c2ccc(-c3cccc(O)c3)cc2)c1
In vitro [11]
  Papp at 50 µM: 12.5 ×10⁻⁶ cm/s
[9]
  RBA: 0.01%
Cytochrome P450 2C9
  IC50: 1900 nM
In vitro [12]
  microsomal CLint at 1 µM: 203 µL/min/mg
In vitro [13]
  half-life at 1 µM: 0.378 h
T47D
  Activity: inactive
[8]
  IC50: 173 nM
[10]
  RBA: < 0.001%
Cytochrome P450 3A4
  IC50: 2100 nM
Cytochrome P450 2D6
  IC50: > 4000 nM
Cytochrome P450 2C19
  IC50: > 4000 nM
Cytochrome P450 2B6
  IC50: > 4000 nM
[14]
  IC50: 2260 nM
Cytochrome P450 1A2
  IC50: > 4000 nM

## Oc1ccc(-c2nsc(-c3cccc(O)c3)n2)cc1
T47D
  Activity: inactive
[8]
  IC50: 413 nM

## Oc1ccc(-c2csc(-c3cccc(O)c3)n2)cc1
[8]
  IC50: > 1000 nM

## Oc1ccc(-c2ccc(-c3cccc(O)c3)s2)cc1
In vitro [11]
  Papp at 50 µM: 22 ×10⁻⁶ cm/s
T47D
  Activity: inactive
[8]
  IC50: 69 nM

## Oc1cccc(-c2cn(-c3cccc(O)c3)nn2)c1
[8]
  IC50: > 5000 nM

## Oc1ccc(-c2ccc(-c3ccccc3)s2)cc1
[1]
  Activity: inactive

## Oc1cccc(-c2nnc(-c3cccc(O)c3)s2)c1
[8]
  IC50: 336 nM

## Cn1nc(-c2cccc(O)c2)nc1-c1ccc(O)cc1
[1]
  Activity: inactive

## Oc1ccc(-c2ccc(-c3ccc(O)cc3)[se]2)cc1
[1]
  Activity: inactive

## Oc1ccc(-c2nc(-c3cccc(O)c3)cs2)cc1
[8]
  IC50: > 5000 nM

## Oc1cccc(-c2ccc(-c3cccc(O)c3)[se]2)c1
[1]
  Activity: inactive

## Oc1cccc(-c2cc(-c3ccccc3)cs2)c1
[8]
  IC50: > 5000 nM

## Oc1ccc(-c2ccsc2-c2ccc(O)cc2)cc1
[1]
  Activity: inactive

## Oc1cccc(-c2cnc(-c3cccc(O)c3)s2)c1
In vitro [12]
  microsomal CLint at 1 µM: 367 µL/min/mg
In vitro [13]
  half-life at 1 µM: 0.21 h
T47D
  Activity: inactive
[8]
  IC50: 243 nM
Cytochrome P450 2D6
  IC50: > 4000 nM
Cytochrome P450 2C19
  IC50: > 4000 nM
Cytochrome P450 2B6
  IC50: > 4000 nM
Cytochrome P450 1A2
  IC50: > 4000 nM

## Oc1ccc(-c2ccsc2-c2cccc(O)c2)cc1
[8]
  IC50: > 1000 nM

## Oc1ccc(-c2ccc(-c3ccc(O)cc3)s2)cc1
[1]
  Activity: inactive

## Oc1cccc(-c2csc(-c3cccc(O)c3)c2)c1
[8]
  IC50: 185 nM

## Cn1nc(-c2cccc(O)c2)nc1-c1cccc(O)c1
[1]
  Activity: inactive

## Oc1ccc(-c2cnc(-c3cccc(O)c3)s2)cc1
In vitro [11]
  Papp at 50 µM: 7.8 ×10⁻⁶ cm/s
[9]
  RBA: 0.01%
Rattus norvegicus [2]
  Cz: 6.6 ng/mL
[10]
  RBA: < 0.01%
Rattus norvegicus [3]
  tz: 10 h
[4]
  half-life: 1.5 h
[5]
  Tmax: 8 h
Rattus norvegicus [6]
  AUC: 99.2 ng·h/mL
[7]
  Cmax: 7.8 ng/mL

## Oc1ccc(-c2cccc(-c3ccc(O)cc3)c2)cc1
[8]
  IC50: > 1000 nM

## Cn1nc(-c2ccc(O)cc2)nc1-c1cccc(O)c1
[1]
  Activity: inactive

## Oc1ccc(-c2cc(-c3cccc(O)c3)cs2)cc1
In vitro [11]
  Papp at 50 µM: 14.4 ×10⁻⁶ cm/s
[9]
  RBA: 0.1%
In vitro [12]
  microsomal CLint at 1 µM: 248 µL/min/mg
In vitro [13]
  half-life at 1 µM: 0.31 h
T47D
  Activity: inactive
[8]
  IC50: 151 nM
[10]
  RBA: 0.01%
Cytochrome P450 3A4
  IC50: 1900 nM
Cytochrome P450 2D6
  IC50: > 4000 nM
Cytochrome P450 2C19
  IC50: > 4000 nM
Cytochrome P450 2B6
  IC50: > 4000 nM
Cytochrome P450 1A2
  IC50: > 4000 nM

## Oc1cccc(-c2csc(-c3cccc(O)c3)n2)c1
[8]
  IC50: 455 nM

## Oc1ccc(-c2ncc(-c3cccc(O)c3)s2)cc1
[8]
  IC50: > 1000 nM

## Oc1cccc(-c2ccc(-c3cccc(O)c3)nc2)c1
[9]
  RBA: < 0.01%
[10]
  RBA: 0.01%

## Oc1ccc(-c2cnc(-c3ccc(O)cc3)s2)cc1
[1]
  Activity: inactive

## c1ccc(-c2ccc(-c3ccccc3)s2)cc1
[1]
  Activity: inactive
